Experimental data from PMC8086144, “A novel peptide antagonist of the human growth hormone receptor” (The Journal of Biological Chemistry, 2021).

Columns and labels:
hGHR = molecular target: T1, hGHR (Homo sapiens, UniProt P10912); assay: hGH-mediated pSTAT5 in SK-MEL-28 cells, ELISA; format: cell-based; conditions: ELISA (pSTAT5A Y694/pSTAT5B Y699), SK-MEL-28 cells co-treated with hGH and 200 nM peptide, Equation 2, triplicate; for inhibition at 0.2 µM: SK-MEL-28, 20 min; for % pSTAT5 inhibition: 20 min
T1 construct: previously reported to express high levels of endogenous hGHR; host or cells: SK-MEL-28, MALME-3M, IM9
T1 sequence (P10912 19-638): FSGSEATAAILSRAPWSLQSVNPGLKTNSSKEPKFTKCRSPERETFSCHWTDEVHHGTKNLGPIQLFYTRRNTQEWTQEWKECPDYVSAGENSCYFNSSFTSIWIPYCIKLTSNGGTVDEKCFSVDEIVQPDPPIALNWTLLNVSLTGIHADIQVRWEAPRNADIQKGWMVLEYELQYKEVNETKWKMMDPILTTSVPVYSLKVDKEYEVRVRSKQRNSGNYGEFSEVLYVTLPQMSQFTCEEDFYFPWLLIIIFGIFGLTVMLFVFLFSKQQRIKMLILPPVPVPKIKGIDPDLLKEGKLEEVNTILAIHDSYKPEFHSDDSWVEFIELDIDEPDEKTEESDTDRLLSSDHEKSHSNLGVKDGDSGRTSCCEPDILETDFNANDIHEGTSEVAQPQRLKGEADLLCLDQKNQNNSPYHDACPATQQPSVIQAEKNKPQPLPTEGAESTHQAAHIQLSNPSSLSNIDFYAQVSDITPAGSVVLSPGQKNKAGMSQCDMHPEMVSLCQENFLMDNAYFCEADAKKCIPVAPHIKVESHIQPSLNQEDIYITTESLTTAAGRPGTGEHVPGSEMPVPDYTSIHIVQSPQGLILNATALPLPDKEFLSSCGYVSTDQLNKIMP
Description: SK-MEL-28, MALME-3M, and T84 cells were grown and maintained in Eagle's Minimal Essential Medium. IM9 and L cells were grown in RPMI-1640 media and Dulbecco's modified Eagle's medium, respectively. All growth media was supplemented with 10% fetal bovine serum and 1× antibiotic-antimycotic […] solution. Cells were grown at 37 °C under a 5% CO2 atmosphere in a humidified incubator, and growth media was replaced every 48 h during incubation. No hGH was present in or added to the growth media unless specifically indicated. Between 12 to 16 h after seeding, adherent cells (SK-MEL-28, MALME-3M, T84, L cells) were switched to serum-free growth media (no GH) and starved for 4 h before the addition of hGH, bGH (L cells), hPRL (MALME-3M and T84 cells), or buffer at the concentrations noted. Cells were then allowed to incubate for an additional 20 min before being harvested. For suspended cell treatments, IM9 cells were pelleted by centrifugation at 140g for 5 min at room temperature. The supernatant was then removed by aspiration, and the cells were resuspended in serum-free media. The cells were then starved for 4 h at 37 °C under a 5% CO2 atmosphere in a humidified incubator and subsequently treated with hGH, S1H, or both at the indicated concentrations for 20 min before harvesting by centrifugation.
Following treatment, the cells were harvested at the indicated time points, and the total protein was extracted. To affect protein extraction, the treatment media was removed by aspiration, and the cells were washed twice with ice-cold PBS. Following washing, total protein was extracted from the cells using RIPA buffer (100 μl/million cells) supplemented with 1.5× Halt protease and phosphatase inhibitor cocktail. Briefly, chilled RIPA buffer was added to the cells, and the lysis reaction was allowed to incubate for 5 min at 4 °C. Adherent cells were harvested for lysis using a sterile cell scraper. The resultant cell suspensions were sonicated on ice for 60 s with ON (2-s)/OFF (1-s) pulses at 2% power. The cell lysate was then cleared by centrifugation at 8000g for 10 min at 4 °C. Following centrifugation, the supernatant was collected and stored at −80 °C until further use. Sample protein concentration was quantified using a Bradford assay with bovine serum albumin as the protein standard. Absorbance at 595 nm was measured using a Spectramax 250 multimode plate reader (Molecular Devices) and processed using SoftmaxPro v4.7.1 software.
Intracellular pSTAT5A (Y694) and pSTAT5B (Y699) levels were quantified from clarified protein samples using an InstantOne ELISA kit (Thermo Fisher) according to the manufacturer’s instructions. Briefly, 50 μl of protein sample (1 mg/ml) were added to wells containing 50 μl antibody cocktail in a 96-well plate and incubated at room temperature for 2 h with shaking (300 rpm). Following incubation, the wells were washed, and the bound antibodies were detected by adding detection regent and incubating the plate for 1 h at room temperature with shaking (300 rpm). Following incubation, stop reagent was added, and the absorbance was read at 450 nm using a UV-VIS spectrophotometer (Molecular Devices, model M2). All experiments were performed in triplicate. Percent pSTAT5 inhibition was calculated from background-subtracted pSTAT5 levels using Equation 2:(2) %inhibition=100×(pSTAT5hGH−pSTAT5PI)/pSTAT5hGH where pSTAT5hGH is the fold-induction of pSTAT5 upon treatment with hGH alone and pSTAT5PI is the fold-induction of pSTAT5 upon co-treatment with hGH and peptide inhibitor.

[1] = Wavelength-dependent CD spectropolarimetry (helical propensity); format: physicochemical; conditions: 25 °C; for % α-helix + TFE / % α-helix - TFE: calculated from MRE at 222 nm (Equation 1); for % α-helix + TFE / [θ]222 + TFE (mean residue ellipticity at 222 nm): 20 μM peptide in PBS with 30% (v/v) TFE; for % α-helix - TFE / [θ]222 - TFE (mean residue ellipticity at 222 nm): 20 μM peptide in PBS, no TFE; for [θ]222 + TFE (mean residue ellipticity at 222 nm) / [θ]222 - TFE (mean residue ellipticity at 222 nm): far-UV CD, background-subtracted average of four scans, in deg·cm2/dmol (unit assumed)
Description: The solution-phase structure of each peptide was evaluated by wavelength-dependent CD spectropolarimetry. For analysis, stock peptides were diluted to a final concentration of 20 μM in PBS supplemented with or without 30% (v/v) TFE. All peptide solutions were allowed to equilibrate for 10 min at 25 °C before analysis. Far-UV wavelength scans were performed on a Jasco J-715 CD spectropolarimeter from 255 nm to 195 nm at 25 °C. Final spectra were generated from a background subtracted (buffer only) average of four scans. Data were processed using J-700 Software v1.5 (Jasco) and KaleidaGraph v4.5. Percent helicity was calculated from the mean residue ellipticity at 222 nm using Equation 1:(1) %helical content=100×([θ]222/(−39,000(1−2.57/n))) where [θ]222 is the mean residue ellipticity at 222 nm and n is the total number of peptide bonds ([86]).

[2] = molecular target: T2, trypsin (bovine pancreas) (Bos taurus, UniProt P00760); assay: Trypsin degradation of hGH and pegvisomant (HPLC and Western blot); format: in vitro ADME; conditions: 4 μg/ml trypsin in digestion buffer pH 7.8, 37 °C, up to 8 h, 25 μg/ml protein
T2 construct: purchased Sigma-Aldrich; host or cells: bovine pancreas
T2 sequence (P00760 24-246): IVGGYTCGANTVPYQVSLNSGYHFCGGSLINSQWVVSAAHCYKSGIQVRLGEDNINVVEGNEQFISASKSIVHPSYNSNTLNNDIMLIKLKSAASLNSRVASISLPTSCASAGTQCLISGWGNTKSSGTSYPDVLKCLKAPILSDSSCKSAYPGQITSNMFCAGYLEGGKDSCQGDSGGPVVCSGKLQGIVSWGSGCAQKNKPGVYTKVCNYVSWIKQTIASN
Description: (§1) The samples were then incubated at 95 °C for 5 min before being cooled on ice and stored at −80 °C. […] Following separation, the proteins were transferred to polyvinylidine difluoride membranes and subjected to Western blot analysis (vide infra). The fraction of intact protein was quantified by measuring the integrated density of each band contained within regions of the gel corresponding to “intact” or “degraded” proteins. […] These reactions were allowed to incubate at 37 °C for up to 8 h, with samples removed at selected timepoints for analysis. Following incubation, the samples were either mixed with 5× Laemmli loading buffer and subjected to SDS-PAGE for Western blot analysis (Fig. S5) or directly injected onto a C18 reversed-phase column for analysis by HPLC as described above for the S1H peptide (Fig. S4).

[3] = Stability of hGH and pegvisomant in human serum (Western blot); format: in vitro ADME; conditions: RPMI with 25% (v/v) heat-inactivated human AB serum, 37 °C, 25 μg/ml protein, SDS-PAGE/Western blot densitometry, average of three experiments
Description: as §1

Row | Substance | inhibition at 0.2 µM (hGHR) [%] | % pSTAT5 inhibition (hGHR) | % α-helix + TFE [1] [%] | % α-helix - TFE [1] [%] | [θ]222 + TFE (mean residue ellipticity at 222 nm) [1] | [θ]222 - TFE (mean residue ellipticity at 222 nm) [1] | time to full degradation by trypsin [2] [h] | protein remaining intact after 48 h in human serum [3] [%]
1 | Ac-YIPAEQKYSFLQNPQT-NH2 [S1H (K39A)] | 88.5 |  |  |  |  |  |  | 
2 | Ac-YIPKAQKYSFLQNPQT-NH2 [S1H (E40A)] | 33.4 |  |  |  |  |  |  | 
3 | Ac-YIPKEAKYSFLQNPQT-NH2 [S1H (Q41A)] | 37.4 | reduced inhibitory effects compared with WT S1H | 25.4 | 8.3 | -8,400 | -2,700 |  | 
4 | Ac-YIPKEQAYSFLQNPQT-NH2 [S1H (K42A)] | 51.7 | reduced inhibitory effects compared with WT S1H | 24.4 | 2.4 | -8,100 | -800 |  | 
5 | Ac-YIPKEQKASFLQNPQT-NH2 [S1H (Y43A)] | 66.6 | comparable to WT S1H | 68.8 | 11.2 | -22,800 | -3,700 |  | 
6 | Ac-YIPKEQKYAFLQNPQT-NH2 [S1H (S44A)] | 72.3 | comparable to WT S1H | 63.5 | 15.7 | -21,100 | -5,200 |  | 
7 | Ac-YIPKEQKYSALQNPQT-NH2 [S1H (F45A)] | 52.5 | reduced inhibitory effects compared with WT S1H | 21.4 | 11.1 | -7,100 | -3,700 |  | 
8 | Ac-YIPKEQKYSFAQNPQT-NH2 [S1H (L46A)] | 75.1 | comparable to WT S1H |  | 7.0 |  | -2,300 |  | 
9 | Ac-YIPKEQKYSFLANPQT-NH2 [S1H (Q47A)] | 30.1 |  | 86.3 | 8.2 |  | -2,700 |  | 
10 | Ac-YIPKEQKYSFLQAPQT-NH2 [S1H (N48A)] | 89.1 |  | 12.2 | 6.7 | -4,100 | -2,200 |  | 
11 | hGH: recombinant human growth hormone, 191-amino acid peptide hormone (22 kDa) |  |  |  |  |  |  | 8 | > 92
